These are literature values, as cited in article PMC6006448 (ACS Chemical Biology, 2018).

The data set has as its system Rac1 and Cdc42.

Each structure is given as a SMILES string.

As for `COc1ccc2cc([C@@H](C)C(=O)O)ccc2c1` [R-naproxen], the “action on Rac1 and Cdc42 in a cellular setting” value is listed as “inhibitor”.
